Results: patent US20250255867A1 (Kadmon Corporation, LLC, priority 2022, published 2025)
Where “and” joins values, the source holds several entries; their conditions need not be identical. Identical values can stand only once. Like-named read-outs stand apart in the source and are kept apart here.

Description: All responses were assessed by the investigators.
Reported Adverse Events. […] All-cause mortality data collected during the study were assessed for all enrolled participants. Disease progression related death was not reported as AE.
Number of Participants With Treatment-emergent Adverse Events (TEAEs), and Treatment-emergent Serious Adverse Events (TESAEs). […] TEAEs included both SAEs and non-SAEs. […] Analysis was performed on safety population which included all participants who received at least 1 dose of study medication.

Q: Which results are given for `CC(C)NC(=O)COc1cccc(-c2nc(Nc3ccc4[nH]ncc4c3)c3ccccc3n2)c1` [Belumosudil, 2-{3-[4-(1H-indazol-5-ylamino)-2-quinazolinyl]phenoxy}-N-(propan-2-yl) acetamide]?
A: Thrombocytosis: # Events (Cohort 3 400 mg QD): 0; Thrombocytosis: Affected/At Risk (Cohort 3 400 mg QD): 0/21; Thrombocytosis: Affected/At Risk (%) (Cohort 3 400 mg QD): (0%); Tinea pedis: # Events (Cohort 3 400 mg QD): 0; Tinea pedis: Affected/At Risk (Cohort 3 400 mg QD): 0/21; Tinea pedis: Affected/At Risk (%) (Cohort 3 400 mg QD): (0%); Tooth fracture: # Events (Cohort 3 400 mg QD): 0; Tooth fracture: Affected/At Risk (Cohort 3 400 mg QD): 0/21; Tooth fracture: Affected/At Risk (%) (Cohort 3 400 mg QD): (0%); Total Other Adverse Events: Affected/At Risk (Cohort 3 400 mg QD): 19/21; Total Other Adverse Events: Affected/At Risk (%) (Cohort 3 400 mg QD): (90.48%); Transfusion reaction: # Events (Cohort 3 400 mg QD): 0; Transfusion reaction: Affected/At Risk (Cohort 3 400 mg QD): 0/21; Transfusion reaction: Affected/At Risk (%) (Cohort 3 400 mg QD): (0%); Tremor: # Events (Cohort 3 400 mg QD): 4; Tremor: Affected/At Risk (Cohort 3 400 mg QD): 3/21; Tremor: Affected/At Risk (%) (Cohort 3 400 mg QD): (14.29%); Type 2 diabetes mellitus: # Events (Cohort 3 400 mg QD): 0; Type 2 diabetes mellitus: Affected/At Risk (Cohort 3 400 mg QD): 0/21; Type 2 diabetes mellitus: Affected/At Risk (%) (Cohort 3 400 mg QD): (0%); Ulcerative keratitis: # Events (Cohort 3 400 mg QD): 0; Ulcerative keratitis: Affected/At Risk (Cohort 3 400 mg QD): 0/21; Ulcerative keratitis: Affected/At Risk (%) (Cohort 3 400 mg QD): (0%); Upper respiratory tract infection: # Events (Cohort 3 400 mg QD): 9; Upper respiratory tract infection: Affected/At Risk (Cohort 3 400 mg QD): 7/21; Upper respiratory tract infection: Affected/At Risk (%) (Cohort 3 400 mg QD): (33.33%); Upper-airway cough syndrome: # Events (Cohort 3 400 mg QD): 1; Upper-airway cough syndrome: Affected/At Risk (Cohort 3 400 mg QD): 1/21; Upper-airway cough syndrome: Affected/At Risk (%) (Cohort 3 400 mg QD): (4.76%); Urinary retention: # Events (Cohort 3 400 mg QD): 0; Urinary retention: Affected/At Risk (Cohort 3 400 mg QD): 0/21; Urinary retention: Affected/At Risk (%) (Cohort 3 400 mg QD): (0%); Urinary tract infection: # Events (Cohort 3 400 mg QD): 0; Urinary tract infection: Affected/At Risk (Cohort 3 400 mg QD): 0/21; Urinary tract infection: Affected/At Risk (%) (Cohort 3 400 mg QD): (0%); Urinary tract pain: # Events (Cohort 3 400 mg QD): 1; Urinary tract pain: Affected/At Risk (Cohort 3 400 mg QD): 1/21; Urinary tract pain: Affected/At Risk (%) (Cohort 3 400 mg QD): (4.76%); Urine output decreased: # Events (Cohort 3 400 mg QD): 0; Urine output decreased: Affected/At Risk (Cohort 3 400 mg QD): 0/21; Urine output decreased: Affected/At Risk (%) (Cohort 3 400 mg QD): (0%); Vascular access complication: # Events (Cohort 3 400 mg QD): 0; Vascular access complication: Affected/At Risk (Cohort 3 400 mg QD): 0/21; Vascular access complication: Affected/At Risk (%) (Cohort 3 400 mg QD): (0%); Vertigo: # Events (Cohort 3 400 mg QD): 0; Vertigo: Affected/At Risk (Cohort 3 400 mg QD): 0/21; Vertigo: Affected/At Risk (%) (Cohort 3 400 mg QD): (0%); Vision blurred: # Events (Cohort 3 400 mg QD): 4; Vision blurred: Affected/At Risk (Cohort 3 400 mg QD): 4/21; Vision blurred: Affected/At Risk (%) (Cohort 3 400 mg QD): (19.05%); Vomiting: # Events (Cohort 3 400 mg QD): 4; Vomiting: Affected/At Risk (Cohort 3 400 mg QD): 4/21; Vomiting: Affected/At Risk (%) (Cohort 3 400 mg QD): (19.05%); Weight decreased: # Events (Cohort 3 400 mg QD): 4; Weight decreased: Affected/At Risk (Cohort 3 400 mg QD): 2/21; Weight decreased: Affected/At Risk (%) (Cohort 3 400 mg QD): (9.52%); Weight increased: # Events (Cohort 3 400 mg QD): 4; Weight increased: Affected/At Risk (Cohort 3 400 mg QD): 1/21; Weight increased: Affected/At Risk (%) (Cohort 3 400 mg QD): (4.76%); White blood cell count decreased: # Events (Cohort 3 400 mg QD): 2; White blood cell count decreased: Affected/At Risk (Cohort 3 400 mg QD): 1/21; White blood cell count decreased: Affected/At Risk (%) (Cohort 3 400 mg QD): (4.76%); ALT/AST increased all grade, No. (Cohort 3 400 mg QD n=21): 2; ALT/AST increased grade ≥3, No. (Cohort 3 400 mg QD n=21): 0; Anemia grade ≥3, No. (Cohort 3 400 mg QD n=21): 0; Any AE, No. of patients (Cohort 3 400 mg QD n=21): 16; Cough all grade, No. (Cohort 3 400 mg QD n=21): 7; Death, No. (Cohort 3 400 mg QD n=21): 2; Diarrhea all grade, No. (Cohort 3 400 mg QD n=21): 7; Drug-related AE, No. (Cohort 3 400 mg QD n=21): 14; Drug-related SAE, No. (Cohort 3 400 mg QD n=21): 0; Dyspnea all grade, No. (Cohort 3 400 mg QD n=21): 7; Dyspnea grade ≥3, No. (Cohort 3 400 mg QD n=21): 4; Fatigue all grade, No. (Cohort 3 400 mg QD n=21): 9; Grade ≥3 AE, No. (Cohort 3 400 mg QD n=21): 14; Headache all grade, No. (Cohort 3 400 mg QD n=21): 6; Hyperglycemia grade ≥3, No. (Cohort 3 400 mg QD n=21): 2; Hypertension all grade, No. (Cohort 3 400 mg QD n=21): 4; Hypoxia grade ≥3, No. (Cohort 3 400 mg QD n=21): 2; Lung infection or pneumonia grade ≥3, No. (Cohort 3 400 mg QD n=21): 2; Nausea all grade, No. (Cohort 3 400 mg QD n=21): 8; Peripheral edema all grade, No. (Cohort 3 400 mg QD n=21): 6; SAE, No. (Cohort 3 400 mg QD n=21): 12; URI all grade, No. (Cohort 3 400 mg QD n=21): 7; Cytomegalovirus (CMV) infection or reactivation (Example 1): no reported CMV infection or reactivation; Patients who discontinued because of potentially drug-related AEs (Example 1): Three; Cytomegalovirus (CMV) infection or reactivation (Example 1, listed as belumosudil): No cases; AE cough, patients (Total N=54): 22%; AE diarrhea, patients (Total N=54): 33%; AE dyspnea, patients (Total N=54): 30%; AE fatigue, patients (Total N=54): 33%; AE headache, patients (Total N=54): 24%; AE hypertension, patients (Total N=54): 20%; AE increased liver function tests, patients (Total N=54): 33%; AE nausea, patients (Total N=54): 33%; AE peripheral edema, patients (Total N=54): 24%; AE upper respiratory infection, patients (Total N=54): 46%; ALT/AST increased all grade, No. (Total N=54): 18; ALT/AST increased grade ≥3, No. (Total N=54): 4; Anemia grade ≥3, No. (Total N=54): 3; Any AE, No. of patients (Total N=54): 53; Cough all grade, No. (Total N=54): 12; Death, No. (Total N=54): 2; Diarrhea all grade, No. (Total N=54): 18; Drug-related AE, No. (Total N=54): 30; Drug-related SAE, No. (Total N=54): 0; Dyspnea all grade, No. (Total N=54): 16; Dyspnea grade ≥3, No. (Total N=54): 7; Fatigue all grade, No. (Total N=54): 18; Grade ≥3 AE, No. (Total N=54): 33; Grade ≥3 AE, patients (Total N=54): Sixty-one; Grade ≥3 cytopenias, patients (Total N=54): 4%; Grade ≥3 dyspnea, patients (Total N=54): 13%; Grade ≥3 hyperglycemia, patients (Total N=54): 7%; Grade ≥3 hypoxia, patients (Total N=54): 7%; Grade ≥3 increased liver function tests, patients (Total N=54): 7%; Headache all grade, No. (Total N=54): 13; Hyperglycemia grade ≥3, No. (Total N=54): 4; Hypertension all grade, No. (Total N=54): 11; Hypoxia grade ≥3, No. (Total N=54): 4; Lung infection or pneumonia grade ≥3, No. (Total N=54): 5; Nausea all grade, No. (Total N=54): 18; Peripheral edema all grade, No. (Total N=54): 13; SAE, No. (Total N=54): 23; Serious AE dyspnea, patients (Total N=54): 7%; Serious AE hypoxia, patients (Total N=54): 4%; Serious AE influenza-like illness, patients (Total N=54): 4%; Serious AE lung infection, patients (Total N=54): 6%; Serious AEs, patients (Total N=54): 43%; URI all grade, No. (Total N=54): 25; Patients with dose interruptions (all): 41%; Patients with dose reductions (all): 9%; Patients who died during the study (all in cohort 3, none attributed to belumosudil): Four; Eyelid margin crusting: Affected/At Risk (in vivo): 1/17 and 0/16 and 0/21; Median relative dose intensity (overall): 98%; Median duration of dose interruption (range, 2-39 days): 10 days; Median duration of dose reduction (range, 21-859 days): 97 days
